Measurements published in US20240252463A1, “METHODS OF TREATING FIBROTIC PATHOLOGIES” (Mayo Foundation for Medical Education and Research, priority 2018, published 2024).

Columns and labels:
[1] = test system: YAP/TAZ target genes; assay: YAP/TAZ target gene expression in flow-sorted lung cells of bleomycin-injured mice; format: in vivo, mouse; details: bleomycin day 10, two doses of DHX (2 and 24 hours prior to collecting lungs)
Method: 29A. Two groups of mice were injured intratracheally with bleomycin at day 0, on day 10 one group received two doses of DHX (2 and 24 hours prior to collecting lungs) and the other received vehicle control. On day 11 lungs were collected to flow sort fibroblasts, epithelial, and endothelial cells. 29B. Changes in RNA expression of YAP/TAZ target genes from freshly isolated cells.
Cell Sorting: FACS: PBS perfused mouse lungs were finely minced with a razor blade in a 100 mm petri dish in 1 mL of cold DMEM medium containing 0.2 mg ml^−1 Liberase DL (Roche) and 100 U ml^−1 DNase I (Roche). The mixture was transferred to 15 ml tubes and incubated at 37° C. for 30 min in a water bath. Enzymatic digestion was inactivated by adding DMEM medium containing 10% fetal bovine serum. The cell suspension was passed once through a 40 µm cell strainer (Fisher) to remove multicellular debris. Cells were then centrifuged at 1,300 r.p.m. at 4° C. for 10 min, washed once in PBS and resuspended in 0.2 ml of FACS buffer (1% BSA, 0.5 μM EDTA pH 7.4 in PBS). The single cell suspension was then incubated with anti-CD45-PerCp-Cy5.5, anti-CD31-PE, anti-PDGFRα-APC and anti-EpCAM-BV421 antibodies (1:200) (Biolegend) for 20 min on ice. After incubation, cells were washed with ice-cold FACS buffer and resuspended in 1 ml of FACS buffer. FACS sorting was conducted using a BD FACS Aria II (BD Biosciences). […]

[2] = test system: YAP/TAZ; assay: YAP/TAZ nuclear localization in IMR-90 and other mesenchymal cells (cardiac, dermal fibroblasts, hepatic stellate cells); format: cell-based, human
Method: FIGS. 2A-2E Dopamine Receptor D1 agonism blocks YAP/TAZ nuclear localization. 2a. Selective agonists of dopamine receptor D1 with varying efficacy inhibit YAP/TAZ nuclear localization; this effect can be overcome by treatment with a DRD1 receptor antagonist (SCH 39166, 3 μM), (Dihydrexidine, 10 μM). IMR-90 cells treated 2 hours prior to fixation. N=4 (****p<0.0001 vs. 0.1% DMSO vehicle control). Scale bar represents 100 μm. 2b. Consistent with DRD1 expression, DHX inhibits YAP/TAZ only in fibroblasts (IPF-FBs) but not in epithelial (NHEpCs) or endothelial (NHMVECs) cells. N=4 (****p<0.0001 vs. 0.1% DMSO vehicle control) 2c. YAP/TAZ localization is induced through multiple ligands which stimulate receptors coupled to Galphαi/q/12, endothelin 1 (ET-1: 100 nM), lysophosphatidic acid (LPA: 10 μM), and serotonin (5-HT: 1 μM). In each case DHX treatment (10 μM) can reverse this effect on YAP/TAZ. IMR-90 cells plated densely onto plastic cell culture plates for 24 hours in media containing 0.1% FBS, treated for 2 hours prior to fixation. N=4 (****p<0.0001 vs. 0.1% DMSO vehicle control), (++++p<0.0001 vs. the respective stimulated agonist ET-1, LPA, or 5-HT). Scale bar represents 100 μm. 2d. cAMP measured in IPF patient-derived fibroblasts treated for 20 minutes with DHX (10 μM)+/−SCH 39166 (3 μM). N=3 (**p<0.01 vs. 0.1% DMSO vehicle control). 2e. Phosphorylation of YAP by Rho-kinase inhibitor Y27632 (20 μM), direct cAMP stimulator Forskolin (10 μM), or DHX (10 μM). IMR-90 cells cultured for 24 hours in media containing 0.1% FBS, treated 2 hours prior to fixation. N=3 (***p<0.001 vs. 0.1% DMSO vehicle control).
FIGS. 6A-6C DHX inhibits YAP/TAZ localization in fibroblasts from multiple tissues. 6a. Mesenchymal cells derived from lung (IMR-90 and IPF-FBs) hepatic stellate cells (HSC), human adult cardiac fibroblasts, (HACF) and human dermal fibroblasts (HDF) were plated densely (Confluent) or sparsely (Control and all remaining conditions) onto plastic cell culture plates for 24 hours in media containing 0.1% FBS, treated for 2 hours with Rho kinase inhibitor Y27632, adenylate cyclase activator forskolin and DHX. N=4, Cells that were positive for nuclear YAP/TAZ were quantified by automated image analysis. 6b. Time course for DHX inhibition of YAP/TAZ nuclear localization. IMR-90 cells, N=3 (***p<0.001 vs. 0.1% DMSO vehicle control). 6c. […] N=3.
ImmunofluorescenceMicroscopy: Cells were plated into 96 well plates (Corning 3603) in their specific growth media and allowed to attach (8 hours). Media was then exchanged for the indicated conditions for each experiment. Cells were fixed in 3.7% formalin (Sigma-Aldrich), permeabilized in 0.25% Triton X-100 (Sigma-Aldrich) and then blocked with 1% BSA for 1 h. Cells or tissue sections were incubated overnight with mouse monoclonal antibody against αSMA (Sigma-Aldrich F3777), and/or a rabbit monoclonal antibody against YAP/TAZ (Cell Signaling D24E4) diluted 1:200 in PBS with 1% BSA. Cells were then washed and exposed to flourescence-conjugated secondary antibodies (Invitrogen) diluted 1:1000 and DAPI (Thermo Fisher Scientific). Images were taken with a Cytation5 (BioTek) microscope. For scoring αSMA positive cells (FIG. 3b), an observer blinded to the treatment conditions counted αSMA-positive cells using a visual threshold for bright fibrous staining; a minimum of 200 cells was counted for each condition. YAP/TAZ localization was quantified (FIG. 2, 6, 8) using Gen5 (Biotek) software. Images were taken at 4× magnification of both DAPI and YAP/TAZ staining. […] Quantification of double positive (YAP/TAZ and αSMA) cells from lung tissue sections (FIG. 4d) was performed similarly; however separate thresholds were established for both YAP/TAZ and αSMA. A minimum of 4000 cells was quantified for each mouse.

For Oc1cc2c(cc1O)[C@H]1c3ccccc3CN[C@@H]1CC2 (racemic) [Dihydrexidine, dihydrexidine], the “expression of YAP/TAZ target genes in freshly isolated lung fibroblasts, epithelial and endothelial cells” value [1] was “selectively blocks expression of YAP/TAZ target genes in lung fibroblasts in vivo”, the “potency of inhibition of YAP/TAZ nuclear localization, normal lung fibroblasts vs IPF-derived” value ([2]; FIG. 6c) was “equally potent” and the “YAP/TAZ nuclear localization across a panel of mesenchymal cell types” value ([2]; cardiac and dermal fibroblasts and hepatic stellate cells (FIG. 6)) was “effective at inhibiting YAP/TAZ nuclear localization”. For the same compound, the “YAP/TAZ nuclear localization induced by endothelin-1, lysophosphatidic acid and serotonin” value ([2]; confluent IMR-90, DHX 10 μM, 2 hours (FIG. 2c)) was “blocked nuclear localization of YAP/TAZ” and the YAP/TAZ nuclear localization ([2]; fibroblasts on stiff matrix (plastic), IMR-90 cells treated 2 hours (FIG. 2a)) was “reduced nuclear localization of YAP/TAZ”.
